Source: patent US20250122266A1, “SMART SINGLE-DOMAIN INTRABODIES WITH PRECISION SWITCHES FOR BIOMEDICAL APPLICATIONS” (THE TEXAS A&M UNIVERSITY SYSTEM, priority 2020, published 2025)

Tested on: Mito-mCh
Assay: mitochondria (Mito) translocation assay of rapabody and caffebody
Assay type: cell-based
Conditions: HeLa cells, GFP-caffebody and Mito-mCh
Description: For ligand-controllable nanobodies rapabody and caffebody, similar imaging and data analysis procedures were used. Transfected HeLa cells were incubated with normal growth media or media supplemented with different concentrations of ligands or diluted beverages as indicated in the figures. Coffees and teas were purchased from Starbucks, while other drinks were purchased from a grocery store.
The instant example evaluates whether the installation of genetically-encoded chemical switches would likewise enable chemogenetic control of nanobodies. The LOV2 domain in the S3 loop of sunbody was substituted with two ligand-controllable precision switches, UniRapR and a dimeric concatemer of acVHH (2×acVHH; FIG. 23A). UniRapR, engineered from the FKBP-FRB based chemically-inducible dimerization system, has been used to enable rapamycin-induced allosteric control of a wide range of host proteins, including kinases and GTPases. Further, acVHH is known to induce self-dimerization upon addition of caffeine, and thus it was hypothesized to elicit conformational changes when inserted into a host protein as a dimeric concatemer. These intrabody compositions were named “rapabodies” and “caffebodies”, respectively, to reflect the compounds used for chemogenetic manipulation. […]

## Cn1c(=O)c2[nH]cnc2n(C)c1=O [theophylline]
  activation of caffebody by caffeine analog or beverages: could similarly activate caffebody
